Assay results reported in ChEMBL document CHEMBL1128100, “Synthesis and evaluation of novel daunomycin-phosphate-sulfate --glucuronide and --glucoside prodrugs for application in adept” (Bioorg Med Chem Lett, 1995).
Structures can show the parent of a compound that is named as a salt.

Columns and labels:
MCF7 = assay: Antiproliferative activity of compound was tested against mammary carcinoma (MCF-7) human tumor cells; assay type: functional, cell-based
M19-MEL = assay: Antiproliferative activity of compound was tested against melanoma (M-19) human tumor cells; assay type: functional, cell-based
EVSA-T = assay: Antiproliferative activity of compound was tested against mammary carcinoma (EVSAT) human tumor cells; assay type: functional, cell-based
A498 = assay: Antiproliferative activity of compound was tested against renal cancer (A-498) human tumor cells; assay type: functional, cell-based
IGROV-1 = assay: Antiproliferative activity of compound was tested against ovarian carcinoma (IGROV) human tumor cells; assay type: functional, cell-based
beta-glucuronidase = assay: Compound was tested for enzyme activation with 0.03 U/mL beta-glucuronidase by measuring its half-life; details: beta-glucuronidase (isolated enzyme)
beta-glucosidase = assay: Compound was tested for enzyme activation with 0.3 U/mL beta-glucosidase by measuring its half-life; details: beta-glucosidase (isolated enzyme)
WiDr = assay: Antiproliferative activity of compound was tested against colon carcinoma (WiDr) human tumor cells; assay type: functional, cell-based
A204 = assay: Antiproliferative activity of compound was tested against rhabdomyosarcoma (A-204) human tumor cells; assay type: functional, cell-based
IGR-37 cell line = assay: Antiproliferative activity of compound was tested against melanoma (IgR-37) human tumor cells; assay type: functional, cell-based
T-24 = assay: Antiproliferative activity of compound was tested against bladder carcinoma (T-24) human tumor cells; assay type: functional, cell-based

| SMILES | IC50 (MCF7; Homo sapiens, MCF7) | IC50 (A204) | IC50 (IGR-37 cell line) | IC50 (T-24) | IC50 (WiDr; Homo sapiens, WiDr) | further results |
| --- | --- | --- | --- | --- | --- | --- |
| COc1cccc2c1C(=O)c1c(O)c3c(c(O)c1C2=O)C[C@@](O)(C(C)=O)C[C@@H]3O[C@H]1C[C@@H](NC(=O)O[C@@H]2O[C@@H](C(=O)[O-])[C@@H](O)[C@H](O)[C@@H]2O)[C@H](O)[C@H](C)O1.[Na+] | – | – | – | – | – | IC50 (MCF7; mcf7): 11200 µM; IC50 (M19-MEL; m19-mel): 15800 µM; IC50 (EVSA-T; evsa-t): 13500 µM; IC50 (A498; a498): 12100 µM; IC50 (IGROV-1; igrov-1): 36900 µM; half-life (beta-glucuronidase): 137 h |
| COc1cccc2c1C(=O)c1c(O)c3c(c(O)c1C2=O)C[C@@](O)(C(C)=O)C[C@@H]3O[C@H]1C[C@@H](NC(=O)O[C@@H]2O[C@@H](C(=O)O)[C@@H](O)[C@H](O)[C@@H]2O)[C@H](O)[C@H](C)O1 | – | – | – | – | – | IC50 (MCF7; mcf7): 125 µM; IC50 (M19-MEL; m19-mel): 200 µM; IC50 (EVSA-T; evsa-t): 280 µM; half-life (beta-glucosidase): > 133 h; IC50 (A498; a498): 250 µM; IC50 (IGROV-1; igrov-1): 520 µM; IC50 (WiDr; widr): 370 µM |
| COc1cccc2c1C(=O)c1c(O)c3c(c(O)c1C2=O)C[C@@](O)(C(C)=O)C[C@@H]3O[C@H]1C[C@@H](N)[C@H](OS(=O)(=O)O)[C@H](C)O1 | 870 µM | 1.3 µM | 3000 µM | 5500 µM | – | – |
| COc1cccc2c1C(=O)c1c(O)c3c(c(O)c1C2=O)C[C@@](O)(C(C)=O)C[C@@H]3O[C@H]1C[C@@H](NS(=O)(=O)O)[C@H](O)[C@H](C)O1 | 10400 µM | 4.9 µM | – | – | – | – |
| COc1cccc2c1C(=O)c1c(O)c3c(c(O)c1C2=O)C[C@@](O)(C(C)=O)C[C@@H]3O[C@H]1C[C@@H](NP(=O)(O)O)[C@H](O)[C@H](C)O1 | 370 µM | 17 µM | 96 µM | 2 µM | 10 µM | – |
| COc1cccc2c1C(=O)c1c(O)c3c(c(O)c1C2=O)C[C@@](O)(C(C)=O)C[C@@H]3O[C@H]1C[C@@H](N)[C@H](OP(=O)(O)O)[C@H](C)O1 | 89 µM | 17 µM | 45 µM | 3 µM | 58 µM | – |
| COc1cccc2c1C(=O)c1c(O)c3c(c(O)c1C2=O)C[C@@](O)(C(C)=O)C[C@@H]3O[C@H]1C[C@H](N)[C@H](O)[C@H](C)O1 [DAUNORUBICIN HYDROCHLORIDE] | 2 µM | 3 µM | 11 µM | 2 µM | 7 µM | IC50 (M19-MEL; Homo sapiens, M19-MEL): 2 µM; IC50 (EVSA-T; Homo sapiens, EVSA-T): 2 µM; IC50 (A498; Homo sapiens, A498): 3 µM; IC50 (IGROV-1; Homo sapiens, IGROV-1): 18 µM |
